Publication PMC11681614, “A crucial active site network of titratable residues guides catalysis and NAD ^+ binding in human succinic semialdehyde dehydrogenase” (Protein Science : A Publication of the Protein Society, 2024)
One block for each molecule: values may come before it.

Legend:
[1] = biological target: T1, hSSADH (human succinic semialdehyde dehydrogenase) (Homo sapiens, UniProt P51649); assay: product inhibition, NADH […], replots of slopes and intercepts; type: biochemical
T1 construct: gene ALDH5A1; purified recombinant homotetramer, expressed and purified as in Didiasova et al. 2024
T1 sequence (P51649 48-535): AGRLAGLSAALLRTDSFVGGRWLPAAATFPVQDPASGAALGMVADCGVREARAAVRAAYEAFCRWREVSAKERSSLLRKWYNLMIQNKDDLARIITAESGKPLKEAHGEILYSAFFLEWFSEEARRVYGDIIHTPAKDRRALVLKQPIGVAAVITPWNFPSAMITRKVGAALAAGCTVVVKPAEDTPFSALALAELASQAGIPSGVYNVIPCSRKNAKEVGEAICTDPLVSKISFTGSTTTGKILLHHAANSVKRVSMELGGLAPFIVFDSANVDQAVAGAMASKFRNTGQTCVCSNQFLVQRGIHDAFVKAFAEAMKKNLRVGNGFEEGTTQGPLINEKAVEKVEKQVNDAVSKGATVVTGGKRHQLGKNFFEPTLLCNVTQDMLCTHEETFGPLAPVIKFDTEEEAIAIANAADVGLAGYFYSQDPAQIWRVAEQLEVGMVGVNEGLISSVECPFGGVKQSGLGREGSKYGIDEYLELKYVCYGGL

[2] = biological target: T2, hSSADH (human succinic semialdehyde dehydrogenase) (Homo sapiens, UniProt P51649, K214A); assay: intrinsic fluorescence quenching (ex […] nm, em […] nm), hyperbolic fit; type: binding; conditions: read-out: K DNAD+
T2 construct: gene ALDH5A1; purified recombinant homotetramer, expressed and purified as in Didiasova et al. 2024
T2 sequence (P51649 48-535 K214A): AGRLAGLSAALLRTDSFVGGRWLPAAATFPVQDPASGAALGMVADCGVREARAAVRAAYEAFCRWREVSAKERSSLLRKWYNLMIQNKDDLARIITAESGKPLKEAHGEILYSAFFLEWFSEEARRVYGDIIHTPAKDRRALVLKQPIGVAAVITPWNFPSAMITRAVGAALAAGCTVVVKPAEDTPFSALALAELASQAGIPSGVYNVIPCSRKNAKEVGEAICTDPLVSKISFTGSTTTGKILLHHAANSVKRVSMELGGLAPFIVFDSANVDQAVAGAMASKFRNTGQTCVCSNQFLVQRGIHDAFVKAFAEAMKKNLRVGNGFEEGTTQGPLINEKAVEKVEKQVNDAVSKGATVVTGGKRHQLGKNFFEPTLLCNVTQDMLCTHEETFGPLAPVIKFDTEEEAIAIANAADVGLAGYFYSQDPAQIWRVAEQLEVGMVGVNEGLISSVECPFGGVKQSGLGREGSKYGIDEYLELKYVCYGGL

[3] = biological target: T3, hSSADH (human succinic semialdehyde dehydrogenase) (Homo sapiens, UniProt P51649, E306Q); assay: as above; type: binding; conditions: read-out: K DNAD+
T3 construct: gene ALDH5A1; purified recombinant homotetramer, expressed and purified as in Didiasova et al. 2024
T3 sequence (P51649 48-535 E306Q): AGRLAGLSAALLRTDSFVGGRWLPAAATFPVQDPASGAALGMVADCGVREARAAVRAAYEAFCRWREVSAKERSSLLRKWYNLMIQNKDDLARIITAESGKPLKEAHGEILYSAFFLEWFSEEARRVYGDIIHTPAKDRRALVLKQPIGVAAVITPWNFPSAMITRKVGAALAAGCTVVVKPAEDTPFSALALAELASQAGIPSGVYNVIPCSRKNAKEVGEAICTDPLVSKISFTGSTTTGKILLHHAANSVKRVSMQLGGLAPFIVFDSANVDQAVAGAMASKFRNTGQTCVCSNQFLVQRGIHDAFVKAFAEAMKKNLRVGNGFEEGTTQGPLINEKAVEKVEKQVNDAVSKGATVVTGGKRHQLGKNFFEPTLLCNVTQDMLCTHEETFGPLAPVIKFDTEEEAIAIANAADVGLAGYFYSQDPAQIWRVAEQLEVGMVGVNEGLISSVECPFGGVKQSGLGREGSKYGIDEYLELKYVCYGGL

[4] = biological target: T1, hSSADH (human succinic semialdehyde dehydrogenase); assay: as above; type: binding
[5] = biological target: T1, hSSADH (human succinic semialdehyde dehydrogenase); assay: initial rates, NADH fluorescence (ex […], em […] nm), global fit to Equation ([…]); type: biochemical; conditions: partial non-competitive substrate inhibition, co-substrate NAD+, pH 8, potassium phosphate
[6] = biological target: the molecule itself; assay: not stated; purified recombinant hSSADH; the experiment on the oligomeric state is in Data S1 (not shown)
[7] = substrate: NC(=O)c1ccc[n+]([C@@H]2O[C@H](COP(=O)([O-])OP(=O)(O)OC[C@H]3O[C@@H](n4cnc5c(N)ncnc54)[C@H](O)[C@@H]3O)[C@@H](O)[C@H]2O)c1; assay: purified protein; type: biochemical, Homo sapiens; conditions: co-substrate SSA, pH 8, 100 mM potassium phosphate, 14°C, ordered bi-bi, partial substrate inhibition fit, varied: cofactor
[8] = substrate: O=CCCC(=O)O; assay: purified protein; type: biochemical, Homo sapiens; conditions: co-substrate NAD+, pH 8, 100 mM potassium phosphate, 14°C, ordered bi-bi, partial substrate inhibition fit

B1: Human succinic semialdehyde dehydrogenase (enzyme)
chain: GRLAGLSAALLRTDSFVGGRWLPAAATFPVQDPASGAALGMVADCGVREARAAVRAAYEAFCRWREVSAKERSSLLRKWYNLMIQNKDDLARIITAESGKPLKEAHGEILYSAFFLEWFSEEARRVYGDIIHTPAKDRRALVLKQPIGVAAVITPWNFPSAMITRKVGAALAAGCTVVVKPAEDTPFSALALAELASQAGIPSGVYNVIPCSRKNAKEVGEAICTDPLVSKISFTGSTTTGKILLHHAANSVKRVSMELGGLAPFIVFDSANVDQAVAGAMASKFRNTGQTCVCSNQFLVQRGIHDAFVKAFAEAMKKNLRVGNGFEEGTTQGPLINEKAVEKVEKQVNDAVSKGATVVTGGKRHQLGKNFFEPTLLCNVTQDMLCTHEETFGPLAPVIKFDTEEEAIAIANAADVGLAGYFYSQDPAQIWRVAEQLEVGMVGVNEGLISSVECPFGGVKQSGLGREGSKYGIDEYLELKYVCYGGL
notes: Human succinic semialdehyde dehydrogenase (EC 1.2.1.24), gene ALDH5A1; this is surmised; also called hSSADH; WT hSSADH; source: recombinant, expressed and purified as described (Didiasova et al. 2024)
- stoichiometry N [6]: 4

B2: hSSADH (human succinic semialdehyde dehydrogenase) (Homo sapiens) (protein)
chain: AGRLAGLSAALLRTDSFVGGRWLPAAATFPVQDPASGAALGMVADCGVREARAAVRAAYEAFCRWREVSAKERSSLLRKWYNLMIQNKDDLARIITAESGKPLKEAHGEILYSAFFLEWFSEEARRVYGDIIHTPAKDRRALVLKQPIGVAAVITPWNFPSAMITRKVGAALAAGCTVVVKPAEDTPFSALALAELASQAGIPSGVYNVIPCSRKNAKEVGEAICTDPLVSKISFTGSTTTGKILLHHAANSVKRVSMELGGLAPFIVFDSANVDQAVAGAMASKFRNTGQTCVCSNQFLVQRGIHDAFVKAFAEAMKKNLRVGNGFEEGTTQGPLINEKAVEKVEKQVNDAVSKGATVVTGGKRHQLGKNFFEPTLLCNVTQDMLCTHEETFGPLAPVIKFDTEEEAIAIANAADVGLAGYFYSQDPAQIWRVAEQLEVGMVGVNEGLISSVECPFGGVKQSGLGREGSKYGIDEYLELKYVCYGGL
notes: purified recombinant homotetramer, expressed and purified as in Didiasova et al. 2024
- Km [7]: 31 ± 5 µM
- kcat [7]: 26 ± 2 s⁻¹
- Km [8]: 1.2 ± 0.2 µM
- kcat [8]: 26 ± 2 s⁻¹

Results, then the molecule that gave them:

- Ki [1]: 15 ± 2 µM
Molecule: NC(=O)C1=CN([C@@H]2O[C@H](COP(=O)(O)OP(=O)(O)OC[C@H]3O[C@@H](n4cnc5c(N)ncnc54)[C@H](O)[C@@H]3O)[C@@H](O)[C@H]2O)C=CC1 [NADH]

- Kd [2]: 2.5 ± 0.2 µM
- Kd [3]: 4.3 ± 0.4 µM
- Kd [4]: 4.5 ± 0.8 µM
Molecule: NC(=O)c1ccc[n+]([C@@H]2O[C@H](COP(=O)([O-])OP(=O)(O)OC[C@H]3O[C@@H](n4cnc5c(N)ncnc54)[C@H](O)[C@@H]3O)[C@@H](O)[C@H]2O)c1 [NAD^+]

- From Equation (5) (14°C) [5]: 13 ± 3 µM
Molecule: O=CCCC(=O)O [SSA]
